The subject of assay [1] is visceral pain in response to colorectal distension. Nature of the assay: Rat model of visceral pain perception (colorectal distension, AWR score). It is filed as in vivo, Rats (male, Wistar). As for the experimental part:
A rat model of visceral pain perception, a pre-clinical model of irritable bowel syndrome, was used in the following example. Rats (male, Wistar, 200-250 g, obtained from Charles River, Monza, Italy), were housed in plastic cages and maintained under controlled conditions with 12-hours light/dark cycle with lights on at 7.00 AM. Tap water and standard laboratory chow were freely available. Before experiments, rats were individually trained by spending 2-3 hours per day in a plexiglass cage for 2-3 days. It allowed them to adjust to a movement-restriction environment. Food was withheld for 12 hours before colorectal distension (CRD) recording were performed. Experiments were performed in awake rats and were conducted in a blind manner in that the observer was not aware of the identity of drug administered to each animal.
In the testing day, rats were sedated with ether inhalation and a 2 cm long latex balloon was inserted intrarectally 2 cm from the anal verge and fixed at the base of the tail. The balloon was connected via a double-barreled cannula to a pressure transducer to continuously monitoring the rectal pressure by a computer (PowerLab PC, A.D. Instruments, Milford, Mass., USA) and to a syringe for inflation/deflation of the balloon. The rats were then housed in a small cage (20×8×8 cm) on an elevated Plexiglas™ platform and allowed to wake up and adapt for 1 hour. After recovery from sedation, animals underwent the CRD procedure and behavioral responses were tested. The night before the experiments, the balloons were inflated and left overnight so the latex stretched and the balloons became compliant.
CRD of 20 seconds, performed every 5 minutes, was applied in increment of 0.4 ml starting from 0.4 ml up to 1.6 ml water. To achieve an accurate measurement of the colonic parameters and perception, the distensions were repeated twice for each intensity and data for each animal were averaged for analysis. Each animal underwent a double set of CRD. Twenty minutes after the first sequence of CRD (0.4 mL-1.6 ml water), drugs were administered intraperitoneally (i.p.) and a second set of CRD was performed. Behavioral responses during the first and the second set of CRD were assessed and compared.
Behavioral response to CRD was assessed by measuring the abdominal withdrawal reflex (AWR) using a semiquantitative score (1).
The effects of mesalamine and Compound XXXV on colonic compliance and sensitivity were determined using a total of 8 fasting rats. To investigate whether the administration of mesalamine and Compound XXXV could revert pain induced by CRD, after the first sequence of CRD, […], after which a second set of CRD was repeated.
To determine the effect of mesalamine or Compound XXXV on colonic smooth muscle, the compliance of the colo-rectum during CRD was obtained from intracolo-rectal volume and pressure and expressed as mL/mmHg.
All data are presented as the mean±SEM, with sample sizes of 4 rats/group; statistical comparison of paired data was performed by the Wilcoxon signed rank test. An associated probability (p value) of less that 5% was considered significant.
A rat model of visceral pain perception as described above was used to compare pain perception scores for both Compound XXXV and Compound XXVII with or without glibenclamide, an inhibitor of ATP-sensitive K^+ (KATP) channels.

Assay [2] relates to leukocyte adherence in mesenteric post-capillary venules. Briefly: Leukocyte adherence to the vascular endothelium in vivo (intravital microscopy, aspirin-induced). The arrangement: species or system Rats. The method, then:
Leukocyte adherence was studied using intravital microscopy, as described in detail previously (Wallace et al., (1993) Am. J. Physiol. 265: 993-998, incorporated hereto by reference). Rats were anesthetized with pentobarbital sodium (60 mg/kg i.p.) and cautery incisions were made along the abdominal region. A tracheotomy was performed to facilitate breathing. The rats were placed in a supine position, and a segment of the mesentery was exteriorized through the abdominal incision. The mesentery was carefully placed over an optically clear viewing pedestal that allowed for trans-illumination of a 2-cm^2 segment of tissue. All exposed tissue was covered with saline-soaked gauze to minimize dehydration. The temperature of the pedestal was kept at 37° C. and the mesentery was superfused with warmed bicarbonate-buffered saline (pH 7.4). An intravital microscope (Nikon L25/0.35) and a ×10 eyepiece were used to observe the mesenteric microcirculation. Post-capillary venules with diameters ranging from 20 to 40 μm were selected for the study. A video camera mounted on the microscope (Panasonic™ digital 5000) projected the image onto a monitor, and the images were recorded for playback analysis using a videocassette recorder. Images of the mesenteric microcirculation were recorded 5 minutes prior to aspirin administration (baseline), at the time of aspirin administration (time 0-5) and every 15 minutes for 60 minutes. Leukocyte adherence was blindly quantified from videotaped images of the vessels made over 5-min periods as the number of leukocytes that remained stationary along the vessel wall for 30 s or more (expressed per 100 μm venule length). Groups of rats (at least 5 in each) were pretreated with Compound XXXV (130 mg/kg), Compound XXVII (100 mg/kg), mesalamine (50 mg/kg), or vehicle 60 min prior to aspirin (or vehicle) administration. These drugs were given intragastrically. In some experiments, rats were treated with glibenclamide (10 mg/kg i.p.) or vehicle 30 min prior to administration of these compounds.

For the compound `Nc1ccc(O)c(C(=O)Oc2ccc(-c3cc(=S)ss3)cc2)c1` [Compound XXXV, 5-Amino-2-hydroxy-benzoic acid 4-(5-thioxo-5H-[1,2]dithiol-3-yl)-phenyl ester], in assay [1] (100 mg/kg i.p., FIG. 16(b)), the intrarectal pressure result is recorded as “successfully reduced intrarectal pressure”. Further, in assay [1] (100 mg/kg i.p., second set of CRD vs first, FIG. 15), the “perception score (visceral pain in response to colorectal distension)” value is recorded as “more effective than mesalamine (and vehicle) in reducing visceral pain”. For the same compound, in assay [1] (0.8 mL colorectal distention, 100 mg/kg, glibenclamide 10 mg/kg i.p. 30 min before, FIG. 17), the “pain perception score after glibenclamide pretreatment” value was “reversed by pretreatment with glibenclamide”. In addition, the pain perception score result in assay [1] (0.8 mL colorectal distention, 100 mg/kg, vs vehicle-treated group, FIG. 17) is listed as “significantly reduced the pain perception”. Further, the pain perception result in assay [1] (equimolar doses: mesalamine 50, Compound XXXV 130, ADT-OH 80, Compound XXVII 100, 4-HTB 50 mg/kg, vs vehicle-treated group) was “significantly reduced pain perception”. Further, the “aspirin-induced leukocyte adherence with glibenclamide pretreatment” value in assay [2] (glibenclamide 10 mg/kg i.p. 30 min prior to the compound, compound plus aspirin, FIG. 19) is listed as “glibenclamide reversed the inhibitory effect”. Further, in assay [2] (minutes 60-65, Compound XXXV 130 mg/kg, Compound XXVII 100 mg/kg, FIG. 20), the “aspirin-induced leukocyte adherence, final time period” value is recorded as “suppress aspirin-induced leukocyte adherence”. Also, in assay [2] (minutes 60-65, glibenclamide 10 mg/kg i.p., FIG. 20), the “aspirin-induced leukocyte adherence, final time period, with glibenclamide pretreatment” value is listed as “glibenclamide pretreatment to reverse this inhibitor effect”. In assay [2] (pretreatment: Compound XXXV 130 mg/kg or mesalamine 50 mg/kg intragastrically 60 min prior to aspirin, glibenclamide 10 mg/kg i.p., FIG. 19), the “aspirin-induced increase in leukocyte adherence” value is “prevented the aspirin-induced increase in leukocyte adherence”.

These data come from patent publication US20110098257A1, “DERIVATIVES OF 4- OR 5-AMINOSALICYLIC ACID” (ANTIBE THERAPEUTICS INC., priority 2005, published 2011).
